Results: PMC9672091, “Ameliorative effect of vanillin on scopolamine-induced dementia-like cognitive impairment in a mouse model” (Frontiers in Neuroscience, 2022)

Target: T1, acetylcholinesterase enzyme (from electric eel) (Electrophorus electricus, UniProt O42275)
T1 construct: gene ache; commercial enzyme from electric eel (Sigma-Aldrich), native source; no construct or oligomer details printed
Assay: modified Ellman assay, absorbance at […] nm
Format: biochemical

T1 sequence (O42275 24-633): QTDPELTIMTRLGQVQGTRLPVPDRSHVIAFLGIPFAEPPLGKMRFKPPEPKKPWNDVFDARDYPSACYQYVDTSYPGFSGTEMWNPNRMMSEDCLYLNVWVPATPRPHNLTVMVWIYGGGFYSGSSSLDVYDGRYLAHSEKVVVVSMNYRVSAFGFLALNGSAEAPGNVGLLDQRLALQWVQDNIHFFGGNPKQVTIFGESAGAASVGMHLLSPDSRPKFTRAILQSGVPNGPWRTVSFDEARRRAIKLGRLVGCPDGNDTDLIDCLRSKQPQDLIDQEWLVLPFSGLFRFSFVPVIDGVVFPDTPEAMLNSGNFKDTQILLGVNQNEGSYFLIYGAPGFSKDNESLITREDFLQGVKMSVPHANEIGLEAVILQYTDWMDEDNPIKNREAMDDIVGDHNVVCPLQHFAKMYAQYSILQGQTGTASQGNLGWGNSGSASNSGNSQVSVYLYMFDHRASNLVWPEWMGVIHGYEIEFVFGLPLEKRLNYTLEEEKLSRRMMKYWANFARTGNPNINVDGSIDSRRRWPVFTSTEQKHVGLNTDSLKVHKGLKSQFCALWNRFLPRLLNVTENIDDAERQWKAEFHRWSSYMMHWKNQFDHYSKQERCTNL

COc1cc(C=O)ccc1O [Vanillin]
IC50: 33 µM
